The values that follow come from patent US10238616B2, “Immunomodulator” (WAKUNAGA PHARMACEUTICAL CO., LTD., priority 2014, dated 2019).

Test [1] deals with IgA production. The test is described as follows: Promoting effect of IgA production (in vitro) <2>. The note with it: spleen lymphocytes of female C57BL/6N mice, 0.03, 0.1 and 0.3 mM, three days at 37° C. Format: cell-based, mouse. The procedure:
(§1) Cells for the biological activity evaluation were prepared as follows. Female C57BL/6N mice for tests were purchased from CLEA Japan, Inc. After the purchase, the mice were acclimated for a week, and then sacrificed and the spleens were taken out. The excised spleens were crushed and passed through a mesh to collect lymphocytes, which were used as the cells for the evaluation test.
(§2) Mouse IgA Quantitation Kit manufactured by Bethyl laboratories, Inc was purchased and the amount of IgA produced was measured. The wash solution or culture supernatant to be measured was placed in a 96-well plate coated with an anti-IgA antibody. After adding various reaction reagents, the absorbance was measured by using a plate reader.
The lymphocytes obtained from the cells for the evaluation test of (2) above were prepared at 5×10^6 cells/mL with a 10% serum-containing medium and inoculated into a 48-well plate at 200 μL each.
To the cells, chemically synthesized cis-S-1-propenycysteine and trans-S-1-propenycysteine, and S-1-propenycysteine (a cis/trans mixture) prepared in Production Example 2 were added at concentrations of 0.03, 0.1, and 0.3 mM, followed by culturing at 37° C. for three days. Subsequently, the amount of IgA produced in the culture supernatants was measured by ELISA.

The subject of test [2] is IL-6 production. Description: Inhibitory effect on IL-6 production under LPS stimulation (in vitro) <2>. Format: cell-based, mouse. The note with it: spleen lymphocytes, 3 μg/mL Salmonella-derived LPS, 0.3 mM, 24 hours at 37° C. The procedure: as §1
(§3) Mouse IL-6 ELISA Ready-SET-Go! Kit manufactured by eBioscience was purchased and the amount of IL-6 produced was measured. The culture supernatant to be measured was placed in a 96-well plate coated with an anti-IL-6 antibody. After adding various reaction reagents, the absorbance was measured by using a plate reader.
The lymphocytes obtained from the cells for the evaluation test of (2) above were prepared at 5×10^6 cells/mL with a 10% serum-containing medium and inoculated into a 48-well plate at 200 μL each. To these cells, chemically synthesized cis-S-1-propenycysteine and trans-S-1-propenycysteine, SAC, and S-1-propenycysteine (a cis/trans mixture) prepared in Production Example 2 were added at a concentration of 0.3 mM in the presence of 3 μg/mL Salmonella-derived lipopolysaccharides (LPS), followed by culturing at 37° C. for 24 hours. Upon completion of culture, the supernatants were collected and the amount of IL-6 was measured by ELISA.

The test system of test [3] is IgA production. Description: Promoting effect of IgA production (in vitro) <1>. The test is classed as cell-based, mouse. As to conditions: spleen lymphocytes of female C57BL/6N mice, 0.1 mM, three days at 37° C., compared with other sulfur-containing amino acid compounds. Here is the method: as §1, §2
The lymphocytes obtained from the cells for the evaluation test of (2) above were prepared at 1×10^6 cells/mL with a 10% serum-containing medium and inoculated into a 24-well plate at 1 mL each, or prepared at 1×10^6 cells/200 μL and inoculated into a 48-well plate at 200 μL each. Subsequently, of the samples prepared in (1) above, those prepared in (1) (a) above were appropriately diluted and added to the 24-well plate so that the final concentration was 4 mg/mL, and those prepared in (1) (b) was added to the 48-well plate at 0.1 mM. After culturing for three days at 37° C., the supernatants were collected and the amount of IgA was measured by ELISA.

The test system of a further test is IgA. Description: Promoting effect of IgA production (in vivo) <1>: IgA in intestinal lavage fluids. More on the design: species or system mouse. As to conditions: female C57BL/6N mice, oral administration for five days, compared with water administration group. Here is the method: (§4) Animals for the biological activity evaluation were reared as follows. Female C57BL/6N mice for tests were purchased from CLEA Japan, Inc. After the purchase, the mice were acclimated for a week, and then used as the animals for the evaluation test.
as §2
The animals for the evaluation test of (3) above were orally administered with the sample prepared in (1) (b) above for five days, and then sacrificed and the small intestines were removed. Phosphate buffer (5 mL) was passed through the small intestines and the contents of the small intestines and the lavage fluids collected. The collected products were combined and centrifuged, and the amount of IgA in the resulting supernatant was quantified by ELISA.

The subject of test [4] is IL-6 production. Description: Inhibitory effect on IL-6 production under LPS stimulation (in vitro) <1>. Format: cell-based, mouse. As to conditions: spleen lymphocytes, 1 μg/mL Escherichia coli 055-derived LPS, 0.1 mM. Here is the method: as §1, §3
(§5) The lymphocytes obtained from the cells for the evaluation test of (2) above were prepared at 1×10^6 cells/mL with a 10% serum-containing medium and inoculated into a 24-well plate at 1 mL each. Subsequently, Escherichia coli 055-derived lipopolysaccharides (LPS) were added at 1 μg/mL, and then the samples prepared in (1) (b) above were added at 0.1 mM, followed by culturing at 37° C. for 24 hours or three days. Upon completion of culture, the supernatants were collected and the amounts of IL-6 and IgA were measured by ELISA.

Test [5] has as its system IgA-producing B cells. The test is described as follows: Promoting effect of IgA production (in vivo) <3>: IgA-producing B cells in the peritoneal cavity. Also noted: species or system mouse. The note with it: female C57BL/6N mice, oral administration for five days, compared with water administration group. Here is the method: as §4
The animals for the evaluation test of (3) above were orally administered with the sample prepared in (1) (b) above for five days. The animals were sacrificed and a laparotomy was performed without breaking the peritoneum. Then, 3 mL of 5% FBS-containing Hank's Balanced Salt Solution was placed in a 5 mL syringe and injected into the peritoneal cavity using a 27G needle. Then, the peritoneum was pressed with fingers to spread the injected solution evenly throughout the peritoneal cavity, followed by collecting the intraperitoneal solution using a 18G needle. The intraperitoneal solution thus collected was centrifuged at 1,500 rpm for five minutes. The resulting supernatant was removed and peritoneal cells were collected. […] Upon completion of treatment, 1×10^4 lymphocytes were analyzed by using a flow cytometer to count the number of IgA-producing B cells which reacted to the anti-mouse CD45 antibody (B220) and the anti-mouse immunoglobulin A antibody.

Test [6] concerns IgA production. Description: Promoting effect on IgA production under LPS stimulation (in vitro) <1>. The test is classed as cell-based, mouse. As to conditions: spleen lymphocytes, 1 μg/mL Escherichia coli 055-derived LPS, 0.1 mM, compared with no stimulation. Here is the method: as §1, §2, §5
For test [7], the system named is IgA-producing B cells. The test is described as follows: Promoting effect of IgA production (in vivo) <2>: IgA-producing B cells in Peyer's patches. More on the design: species or system mouse. As to conditions: female C57BL/6N mice, oral administration for five days, compared with water administration group.
From the text: as §4
The animals for the evaluation test of (3) above were orally administered with the sample prepared in (1) (b) above for five days, and then sacrificed. The small intestines were removed, from which Peyer's patches were collected. The Peyer's patches were ground, to which Collagenase D was added to give a final concentration of 1 mg/mL and DNAase I was added to give a final concentration of 20 μg/mL. Treatment was continued for 30 minutes while shaking at 37° C., followed by centrifugation at 1,500 rpm. The resulting supernatant was removed. Then, 2 mL of 5% FBS-containing Hank's Balanced Salt Solution containing 5 mM EDTA was added, followed by treatment for five minutes while shaking at 37° C. Upon completion of treatment, the resultant was passed through a 40 μm mesh to remove tissue pieces and collect lymphocytes. […] Upon completion of treatment, 1×10^4 lymphocytes were analyzed by using a flow cytometer to count the number of IgA-producing B cells which reacted to the anti-mouse CD45 antibody (B220) and the anti-mouse immunoglobulin A antibody.

`C/C=C/SC[C@H](N)C(=O)O` [trans isomer, trans-S-1-Propenylcysteine]: the “amount of IgA produced in culture supernatants (ELISA), FIG. 8” value (“amount of IgA produced” for short) in the test with IgA production [1] is “significantly enhanced IgA production”. The “IL-6 secretion induced by LPS stimulation (ELISA), FIG. 9” value in the test with IL-6 production [2] is “significantly inhibited IL-6 secretion”.

`CC=CSCC(N)C(=O)O` (centres unmarked) [S-1-propenycysteine, S-1-propenylcysteine]: in the test with IgA production [3], the “amount of IgA in culture supernatant (ELISA), FIG. 2” value is “promoted IgA production more strongly than other sulfur-containing amino acid compounds”. Moreover, the “amount of IgA in the intestinal lavage fluids (ELISA), FIG. 3” value with IgA is on record as “increased”. The “amount of IL-6 secretion induced by LPS stimulation (ELISA), FIG. 7” value with IL-6 production [4] is “reduced”. Also, the “amount of IgA produced” value with IgA production [1] is on record as “significantly enhanced IgA production”. For the same molecule, in the test on IL-6 production [2], the “IL-6 secretion induced by LPS stimulation (ELISA), FIG. 9” value is on record as “significantly inhibited IL-6 secretion”. Further, the “number of IgA-producing B cells in the peritoneal cavity (flow cytometer), FIG. 5” value in the test with IgA-producing B cells [5] was “increased”. In the test with IgA production [6], the “amount of IgA under LPS stimulation (ELISA), FIG. 6” value is given as “higher promoting effect on IgA production than under no stimulation”. The “number of IgA-producing B cells in Peyer's patches (flow cytometer), FIG. 4” value with IgA-producing B cells [7] was “increased”.

As for `C/C=C\SC[C@H](N)C(=O)O` [cis-S-1-propenycysteine, cis-S-1-Propenylcysteine], the “amount of IgA produced” value with IgA production [1] is recorded as “virtually did not affect IgA production”.
